Measurements reported in ChEMBL document CHEMBL2346553, “Synthesis and evaluation of non-dimeric HCV NS5A inhibitors” (Bioorg Med Chem Lett, 2013).

Assays:
Hepatitis C virus = assay: microbe, parasite or virus in culture; conditions: genotype 1b, Huh-7
Vero = conditions: chlorocebus sabaeus
CCRF-CEM = conditions: human
PBMC = conditions: human
in vitro [1] = conditions: human, HuH7 cells
Cytochrome P450 2D6 = Cytochrome P450 2D6 (Homo sapiens, UniProt P10635)
Cytochrome P450 2C9 = Cytochrome P450 2C9 (Homo sapiens, UniProt P11712)
Cytochrome P450 1A2 = molecular target: T1, Cytochrome P450 1A2 (Homo sapiens, UniProt P05177)
T1 sequence (P05177 whole entry): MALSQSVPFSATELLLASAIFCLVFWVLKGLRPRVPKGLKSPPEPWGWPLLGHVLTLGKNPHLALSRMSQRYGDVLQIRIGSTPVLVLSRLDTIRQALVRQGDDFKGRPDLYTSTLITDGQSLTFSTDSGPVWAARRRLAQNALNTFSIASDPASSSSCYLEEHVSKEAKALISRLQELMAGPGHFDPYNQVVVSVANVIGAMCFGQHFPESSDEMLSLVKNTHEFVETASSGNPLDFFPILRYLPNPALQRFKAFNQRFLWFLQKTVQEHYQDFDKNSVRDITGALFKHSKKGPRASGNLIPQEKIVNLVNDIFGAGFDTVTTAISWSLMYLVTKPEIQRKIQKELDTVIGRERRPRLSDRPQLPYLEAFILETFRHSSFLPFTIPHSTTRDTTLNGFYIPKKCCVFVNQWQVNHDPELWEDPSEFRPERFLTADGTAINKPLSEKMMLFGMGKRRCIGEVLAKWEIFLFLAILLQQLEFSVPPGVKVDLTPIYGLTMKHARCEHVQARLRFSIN

Cytochrome P450 3A4 = Cytochrome P450 3A4 (Homo sapiens, UniProt P08684)
CYP2D6 = CYP2D6 (Homo sapiens, UniProt P10635); assay: in vitro
CYP2C9 = CYP2C9 (Homo sapiens, UniProt P11712); assay: in vitro
CYP1A2 = molecular target: T2, CYP1A2 (Homo sapiens, UniProt P05177); assay: in vitro
T2 sequence (P05177 whole entry): T1 sequence (P05177 whole entry)

CYP3A4 = CYP3A4 (Homo sapiens, UniProt P08684); assay: in vitro
in vitro [2] = conditions: human, CEM cells
in vitro [3] = conditions: human, pbmc

Chain of Cytochrome P450 2D6 (P10635 whole entry): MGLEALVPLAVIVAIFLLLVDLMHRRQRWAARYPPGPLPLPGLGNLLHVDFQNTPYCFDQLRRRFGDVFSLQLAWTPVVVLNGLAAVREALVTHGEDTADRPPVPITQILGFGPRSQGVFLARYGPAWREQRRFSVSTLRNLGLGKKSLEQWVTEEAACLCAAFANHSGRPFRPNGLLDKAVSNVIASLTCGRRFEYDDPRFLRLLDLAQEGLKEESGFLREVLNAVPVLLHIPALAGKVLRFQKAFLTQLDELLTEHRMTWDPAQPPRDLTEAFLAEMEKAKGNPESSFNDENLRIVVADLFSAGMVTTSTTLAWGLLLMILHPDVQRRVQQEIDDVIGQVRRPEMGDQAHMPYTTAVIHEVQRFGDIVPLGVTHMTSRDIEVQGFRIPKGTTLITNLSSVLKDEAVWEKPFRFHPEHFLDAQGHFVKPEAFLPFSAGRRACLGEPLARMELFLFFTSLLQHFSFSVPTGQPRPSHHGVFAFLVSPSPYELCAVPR
Chain of CYP2D6 (P10635 whole entry): as above
Chain of Cytochrome P450 2C9 (P11712 whole entry): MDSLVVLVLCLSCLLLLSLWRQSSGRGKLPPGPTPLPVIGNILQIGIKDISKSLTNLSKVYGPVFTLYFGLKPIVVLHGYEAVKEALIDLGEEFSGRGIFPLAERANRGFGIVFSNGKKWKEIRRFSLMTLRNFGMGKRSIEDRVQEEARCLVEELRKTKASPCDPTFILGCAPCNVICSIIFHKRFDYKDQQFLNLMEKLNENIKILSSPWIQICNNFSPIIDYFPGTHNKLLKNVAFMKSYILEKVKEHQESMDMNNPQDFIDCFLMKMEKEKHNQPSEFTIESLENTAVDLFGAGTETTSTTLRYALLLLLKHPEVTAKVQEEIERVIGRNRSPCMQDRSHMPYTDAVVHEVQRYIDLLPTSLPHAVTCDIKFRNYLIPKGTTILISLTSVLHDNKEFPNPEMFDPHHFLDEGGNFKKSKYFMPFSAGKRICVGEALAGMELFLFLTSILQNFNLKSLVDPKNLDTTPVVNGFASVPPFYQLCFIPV
Chain of CYP2C9 (P11712 whole entry): as above
Chain of CYP3A4 (P08684 whole entry): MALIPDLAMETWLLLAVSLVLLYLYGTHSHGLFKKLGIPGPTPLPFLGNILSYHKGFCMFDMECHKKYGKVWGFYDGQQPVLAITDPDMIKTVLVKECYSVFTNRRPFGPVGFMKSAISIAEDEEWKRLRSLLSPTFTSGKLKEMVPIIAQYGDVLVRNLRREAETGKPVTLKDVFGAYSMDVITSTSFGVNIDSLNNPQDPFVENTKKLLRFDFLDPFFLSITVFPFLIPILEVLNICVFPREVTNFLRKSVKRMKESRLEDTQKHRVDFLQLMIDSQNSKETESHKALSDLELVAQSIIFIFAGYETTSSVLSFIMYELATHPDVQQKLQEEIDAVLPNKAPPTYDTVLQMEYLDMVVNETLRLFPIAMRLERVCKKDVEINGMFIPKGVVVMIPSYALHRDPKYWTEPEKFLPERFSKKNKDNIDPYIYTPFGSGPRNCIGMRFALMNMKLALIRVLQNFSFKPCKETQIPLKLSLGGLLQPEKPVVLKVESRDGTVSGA
Chain of Cytochrome P450 3A4 (P08684 whole entry): as above

Structure (SMILES)	EC50 (Hepatitis C virus)	EC90 (Hepatitis C virus)	CC50 (Vero)	CC50 (CCRF-CEM)	CC50 (PBMC)	CC50 (in vitro [1])	IC50 (Cytochrome P450 2D6)	IC50 (Cytochrome P450 2C9)	IC50 (Cytochrome P450 1A2)	IC50 (Cytochrome P450 3A4)	IC90 (CYP2D6)	IC90 (CYP2C9)	IC90 (CYP1A2)	IC90 (CYP3A4)	CC50 (in vitro [2])	CC50 (in vitro [3])
COC(=O)N[C@H](C(=O)N1CCC[C@H]1c1ncc(-c2ccc(-c3ccc(-c4cnc([C@@H]5CCCN5C(=O)[C@@H](NC(=O)OC)C(C)C)[nH]4)cc3)cc2)[nH]1)C(C)C	0.01 nM	0.03 nM	–	–	–	–	–	–	–	–	–	–	–	–	–	–
COC(=O)N[C@H](C(=O)N1CCC[C@H]1c1ncc(-c2ccccc2)[nH]1)C(C)C	> 1000 nM	–	> 100 µM	> 100 µM	> 100 µM	> 1 µM	–	–	–	–	–	–	–	–	–	–
COC(=O)N[C@H](C(=O)N1CCC[C@H]1c1ncc(-c2ccc(Br)cc2)[nH]1)C(C)C	> 100 nM	–	48 µM	50 µM	> 100 µM	> 1 µM	–	–	–	–	–	–	–	–	–	–
COC(=O)N[C@H](C(=O)N1CCC[C@H]1c1ncc(-c2ccc(N=[N+]=[N-])cc2)[nH]1)C(C)C	8 nM	52 nM	> 100 µM	> 100 µM	> 100 µM	> 1 µM	> 100 µM	> 100 µM	> 100 µM	5.1 µM	> 100 µM	> 100 µM	> 100 µM	96.1 µM	–	–
COC(=O)N[C@H](C(=O)N1CCC[C@H]1c1ncc(-c2ccc(C#N)cc2)[nH]1)C(C)C	> 100 nM	–	33 µM	98 µM	> 100 µM	> 1 µM	–	–	–	–	–	–	–	–	–	–
COC(=O)N[C@H](C(=O)N1CCC[C@H]1c1ncc(-c2ccc([N+](=O)[O-])cc2)[nH]1)C(C)C	> 100 nM	–	> 100 µM	> 100 µM	> 100 µM	> 1 µM	–	–	–	–	–	–	–	–	–	–
COC(=O)N[C@H](C(=O)N1CCC[C@H]1c1ncc(-c2ccc(OC(F)(F)F)cc2)[nH]1)C(C)C	> 100 nM	–	30 µM	–	49 µM	> 1 µM	–	–	–	–	–	–	–	–	> 100 µM	–
COC(=O)N[C@H](C(=O)N1CCC[C@H]1c1ncc(-c2ccc(C(F)(F)F)cc2)[nH]1)C(C)C	> 100 nM	–	26 µM	–	–	> 1 µM	–	–	–	–	–	–	–	–	> 100 µM	> 100 µM
COC(=O)N[C@H](C(=O)N1CCC[C@H]1c1ncc(-c2ccc(OC)cc2)[nH]1)C(C)C	> 1000 nM	–	> 100 µM	> 100 µM	> 100 µM	> 1 µM	–	–	–	–	–	–	–	–	–	–
COC(=O)N[C@H](C(=O)N1CCC[C@H]1c1ncc(-c2ccc(C)cc2)[nH]1)C(C)C	> 1000 nM	–	> 100 µM	> 100 µM	> 100 µM	> 1 µM	–	–	–	–	–	–	–	–	–	–
COC(=O)N[C@H](C(=O)N1CCC[C@H]1c1ncc(-c2ccc(-c3ccccc3)cc2)[nH]1)C(C)C	300 nM	900 nM	18 µM	70 µM	14 µM	> 1 µM	–	–	–	–	–	–	–	–	–	–
COC(=O)N[C@@H](CC(C)C)C(=O)N1CCC[C@H]1c1ncc(-c2ccc(-c3ccccc3)cc2)[nH]1	> 100 nM	> 1000 nM	25 µM	61 µM	16 µM	> 1 µM	–	–	–	–	–	–	–	–	–	–
C[C@H](NC(=O)OC(C)(C)C)C(=O)N1CCC[C@H]1c1ncc(-c2ccc(-c3ccccc3)cc2)[nH]1	> 1000 nM	–	13 µM	11 µM	16 µM	> 1 µM	–	–	–	–	–	–	–	–	–	–
C=CC[C@H](NC(C)=O)C(=O)N1CCC[C@H]1c1ncc(-c2ccc(-c3ccccc3)cc2)[nH]1	> 1000 nM	–	21 µM	73 µM	100 µM	> 1 µM	–	–	–	–	–	–	–	–	–	–
COC(=O)N[C@H](C(=O)N1CCC[C@H]1c1ncc(-c2ccc(Cl)cc2Cl)[nH]1)C(C)C	1000 nM	–	15 µM	–	56 µM	> 1 µM	–	–	–	–	–	–	–	–	> 100 µM	–
COC(=O)N[C@H](C(=O)N1CCC[C@H]1c1ncc(-c2ccc(S(=O)(=O)c3ccccc3)cc2)[nH]1)C(C)C	> 100 nM	–	> 100 µM	> 100 µM	> 100 µM	> 1 µM	–	–	–	–	–	–	–	–	–	–
COC(=O)N[C@H](C(=O)N1CCC[C@H]1c1nc(Br)c(-c2ccc(N=[N+]=[N-])cc2)[nH]1)C(C)C	0.7 nM	2.9 nM	16 µM	52 µM	35 µM	> 1 µM	50.5 µM	50.5 µM	80.9 µM	1.5 µM	> 100 µM	> 100 µM	> 100 µM	46.1 µM	–	–

Structure (SMILES)	EC50 (Hepatitis C virus)	EC90 (Hepatitis C virus)	CC50 (Vero)	CC50 (CCRF-CEM)	CC50 (PBMC)	CC50 (in vitro [1])	IC50 (Cytochrome P450 2D6)	IC50 (Cytochrome P450 2C9)	IC50 (Cytochrome P450 1A2)	IC50 (Cytochrome P450 3A4)	IC90 (CYP2D6)	IC90 (CYP2C9)	IC90 (CYP1A2)	IC90 (CYP3A4)	CC50 (in vitro [2])	CC50 (in vitro [3])
COC(=O)N[C@H](C(=O)N1CCC[C@H]1c1nc(Cl)c(-c2ccc(N=[N+]=[N-])cc2)[nH]1)C(C)C	4 nM	14 nM	12 µM	–	94 µM	> 1 µM	–	–	–	–	–	–	–	–	> 100 µM	–
COC(=O)N[C@H](C(=O)N1CCC[C@H]1c1nc(I)c(-c2ccc(N=[N+]=[N-])cc2)[nH]1)C(C)C	2 nM	3 nM	14.2 µM	–	64.2 µM	> 1 µM	–	–	–	–	–	–	–	–	> 100 µM	–
COC(=O)N[C@H](C(=O)N1CCC[C@H]1c1ncc(-c2ccc(-c3ccc(C#N)cc3)cc2)[nH]1)C(C)C	> 100 nM	–	33 µM	98 µM	> 100 µM	> 1 µM	–	–	–	–	–	–	–	–	–	–
COC(=O)N[C@H](C(=O)N1CCC[C@H]1c1ncc(-c2ccc(-c3ccc(C)cc3)cc2)[nH]1)C(C)C	> 100 nM	–	14 µM	16 µM	90 µM	> 1 µM	–	–	–	–	–	–	–	–	–	–
COC(=O)N[C@H](C(=O)N1CCC[C@H]1c1nc(-c2ccc(-c3ccc(C(F)(F)F)cc3)cc2)c[nH]1)C(C)C	4.6 nM	9.6 nM	14 µM	12 µM	> 100 µM	> 1 µM	62.1 µM	9.1 µM	82.9 µM	6.5 µM	> 100 µM	> 100 µM	> 100 µM	> 100 µM	–	–
COC(=O)N[C@H](C(=O)N1CCC[C@H]1c1ncc(-c2ccc(-c3cccc(O)c3)cc2)[nH]1)C(C)C	> 1000 nM	–	50 µM	–	–	> 1 µM	–	–	–	–	–	–	–	–	> 100 µM	> 100 µM
COC(=O)N[C@H](C(=O)N1CCC[C@H]1c1ncc(-c2ccc(-c3ccc(OC)cc3)cc2)[nH]1)C(C)C	> 100 nM	–	13 µM	30 µM	85 µM	> 1 µM	–	–	–	–	–	–	–	–	–	–
COC(=O)N[C@H](C(=O)N1CCC[C@H]1c1ncc(-c2ccc(-c3ccc(C(N)=O)cc3)cc2)[nH]1)C(C)C	21 nM	76 nM	> 100 µM	> 100 µM	> 100 µM	> 1 µM	–	–	–	–	–	–	–	–	–	–
COC(=O)N[C@H](C(=O)N1CCC[C@H]1c1ncc(-c2ccc(-c3ccc(C(=O)OC)cc3)cc2)[nH]1)C(C)C	> 100 nM	–	17 µM	61 µM	14 µM	> 1 µM	–	–	–	–	–	–	–	–	–	–
COC(=O)N[C@H](C(=O)N1CCC[C@H]1c1nc(-c2ccc(-c3ccc(CO)cc3)cc2)c[nH]1)C(C)C	2 nM	9 nM	59 µM	67 µM	> 100 µM	> 1 µM	> 100 µM	31.2 µM	56.7 µM	6.9 µM	> 100 µM	> 100 µM	> 100 µM	> 100 µM	–	–
COC(=O)N[C@H](C(=O)N1CCC[C@H]1c1ncc(-c2ccc(-c3ccc(S(C)(=O)=O)cc3)cc2)[nH]1)C(C)C	> 100 nM	–	6 µM	54 µM	> 100 µM	> 1 µM	–	–	–	–	–	–	–	–	–	–
COC(=O)N[C@H](C(=O)N1CCC[C@H]1c1ncc(-c2ccc(-c3ccc(N=[N+]=[N-])cc3)cc2)[nH]1)C(C)C	> 100 nM	–	11 µM	11 µM	37 µM	> 1 µM	–	–	–	–	–	–	–	–	–	–
COC(=O)N[C@H](C(=O)N1CCC[C@H]1c1nc(Cl)c(-c2ccc(-c3ccc(C(F)(F)F)cc3)cc2)[nH]1)C(C)C	> 100 nM	–	10 µM	10 µM	11 µM	> 1 µM	–	–	–	–	–	–	–	–	–	–
COC(=O)N[C@H](C(=O)N1CCC[C@H]1c1ncc(-c2ccc(N)cc2)[nH]1)C(C)C	200 nM	300 nM	> 100 µM	> 100 µM	> 100 µM	> 1 µM	–	–	–	–	–	–	–	–	–	–
COC(=O)Nc1ccc(-c2cnc([C@@H]3CCCN3C(=O)[C@@H](NC(=O)OC)C(C)C)[nH]2)cc1	> 100 nM	–	> 100 µM	> 100 µM	> 100 µM	> 1 µM	–	–	–	–	–	–	–	–	–	–
COC(=O)N[C@H](C(=O)N1CCC[C@H]1c1ncc(-c2ccc(NS(C)(=O)=O)cc2)[nH]1)C(C)C	> 100 nM	–	13 µM	–	–	> 1 µM	–	–	–	–	–	–	–	–	> 100 µM	> 100 µM
